The target in experiment [1] is T1, Glycogen [starch] synthase, muscle (Homo sapiens, UniProt P13807).
T1 sequence (P13807 whole entry): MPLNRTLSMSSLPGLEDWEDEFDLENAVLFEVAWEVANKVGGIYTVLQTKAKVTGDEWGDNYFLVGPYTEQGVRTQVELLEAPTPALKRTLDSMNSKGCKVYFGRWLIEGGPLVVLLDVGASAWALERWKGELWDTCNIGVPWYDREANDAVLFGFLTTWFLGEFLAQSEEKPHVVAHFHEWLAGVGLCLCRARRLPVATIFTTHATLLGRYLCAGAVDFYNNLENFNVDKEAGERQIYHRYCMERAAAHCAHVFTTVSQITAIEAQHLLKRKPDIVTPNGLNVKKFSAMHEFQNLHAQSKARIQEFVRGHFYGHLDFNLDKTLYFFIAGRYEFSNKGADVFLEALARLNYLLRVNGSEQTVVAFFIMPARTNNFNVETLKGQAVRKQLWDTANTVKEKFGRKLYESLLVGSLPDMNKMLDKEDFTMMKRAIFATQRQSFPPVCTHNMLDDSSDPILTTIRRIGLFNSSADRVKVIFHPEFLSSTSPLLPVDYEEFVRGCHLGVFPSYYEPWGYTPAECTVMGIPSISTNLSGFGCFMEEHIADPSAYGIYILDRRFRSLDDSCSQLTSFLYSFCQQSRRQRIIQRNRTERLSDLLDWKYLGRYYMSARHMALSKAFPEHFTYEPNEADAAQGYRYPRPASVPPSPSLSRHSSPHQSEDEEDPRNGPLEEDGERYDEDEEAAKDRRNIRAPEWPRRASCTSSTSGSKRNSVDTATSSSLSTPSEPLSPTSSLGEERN
Briefly: Kinetic Biochemical Assay. As for the experimental part: The Assay Buffer contained 50 mM Tris pH 7.5, 2 mM MgCl2, and 100 mM KCl. Fresh stocks of BSA at a final concentration of 0.02% and TCEP at 1 mM were added before splitting buffer into hGYS1 buffer and substrate buffer. To the hGYS1 buffer, rabbit liver glycogen was added at a final concentration of 0.2% glycogen. Glucose-6-Phosphate was added at 1 mM, recombinant hGYS1/GN1 protein was added at 50 nM to the substrate buffer, phosphoenolpyruvate (PEP) was added at 2 mM, UDP-Glucose was added at 0.8 mM, NADH) was added at 0.6 mM, and Pyruvate Kinase/Lactate Dehydrogenase was added at 20 units/mL. The reaction was initiated by mixing hGYS1 buffer and substrate buffer at a 1:1 ratio. Both buffers were plated using a liquid dispensing device with hGYS1 buffer plated first followed by the substrate buffer. Plates were spun briefly to eliminate air bubbles and are immediately read in continuous mode at an absorbance of 340 nm, for 10 time points in one-minute increments, for a total of 10 minutes. The slope from these 10 time points was normalized to the positive and negative control wells.

Experiment [2] deals with T2, Glycogen [starch] synthase, liver (Homo sapiens, UniProt P54840).
T2 sequence (P54840 whole entry): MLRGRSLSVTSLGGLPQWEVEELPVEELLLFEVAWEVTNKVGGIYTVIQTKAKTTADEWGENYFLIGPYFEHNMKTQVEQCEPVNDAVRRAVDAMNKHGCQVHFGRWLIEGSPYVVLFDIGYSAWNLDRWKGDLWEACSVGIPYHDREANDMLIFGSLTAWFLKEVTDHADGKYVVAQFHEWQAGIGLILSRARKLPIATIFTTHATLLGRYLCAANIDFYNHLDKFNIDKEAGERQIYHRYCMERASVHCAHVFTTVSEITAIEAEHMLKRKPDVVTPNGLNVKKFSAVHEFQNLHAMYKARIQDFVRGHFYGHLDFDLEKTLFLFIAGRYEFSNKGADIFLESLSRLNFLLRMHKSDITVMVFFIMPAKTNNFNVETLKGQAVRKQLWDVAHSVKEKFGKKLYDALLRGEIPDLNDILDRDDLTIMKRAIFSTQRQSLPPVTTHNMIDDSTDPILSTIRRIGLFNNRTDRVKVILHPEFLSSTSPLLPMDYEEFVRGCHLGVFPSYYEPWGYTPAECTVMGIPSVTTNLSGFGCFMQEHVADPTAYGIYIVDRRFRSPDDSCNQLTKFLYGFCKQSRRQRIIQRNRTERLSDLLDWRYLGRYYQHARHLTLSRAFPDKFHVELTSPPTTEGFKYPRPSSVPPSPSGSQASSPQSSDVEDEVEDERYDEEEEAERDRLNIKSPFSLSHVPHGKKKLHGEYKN
The experiment can be described thus: The GYS2 coupled enzyme assay. The method, then:
Compounds that inhibit the hGYS2 enzyme and, subsequently, the downstream conversion of NADH to NAD+, were tested using assay ready plates (black, clear bottom 384 well plates) in a final DMSO reaction volume of 2.5% DMSO. The Assay Buffer contained 50 mM Tris pH 7.5, 2 mM MgCl2, and 100 mM KCl. Fresh stocks of BSA at a final concentration of 0.02% and TCEP 1 mM were added before splitting buffer into hGYS2 buffer and substrate buffer. To the hGYS2 buffer, rabbit liver glycogen was added at a final concentration of 0.2% glycogen. Glucose-6-Phosphate was added at 2 mM, recombinant hGYS2/GN1 protein was added at 200 nM to the substrate buffer, phosphoenolpyruvate (PEP) was added at 2 mM, UDP-Glucose was added at 2 mM, NADH was added at 0.6 mM, and Pyruvate Kinase/Lactate Dehydrogenase was added at 20 units/mL. The reaction was initiated by mixing hGYS2 buffer and substrate buffer at a 1:1 ratio. Both buffers were plated using a liquid dispensing device with hGYS2 buffer plated first followed by the substrate buffer. Plates were spun briefly to eliminate air bubbles and are immediately read in continuous mode at an absorbance of 340 nm, for 10 time points in one-minute increments, for a total of 10 minutes. The slope from these 10 time points was normalized to the positive and negative control wells. The duplicate % inhibition values are then averaged and fit to a Hill equation for dose response according to the Levenberg-Marquardt algorithm with the Hill equation maximum set to 100 and the minimum set to 0.The results are shown in Table 4 below

This passage reports IC50 results from BindingDB's records for patent US11814367 (Maze Therapeutics, 2023).

As a reminder, the IC50 is the midpoint of a concentration-inhibition curve. Low values mean greater potency, high ones weaker potency. As for `CC(C)c1ccc([C@@H](NC(=O)[C@@H]2C[C@@H](F)CN2C(=O)CNC(=O)N(C)C)c2ccccc2)cc1F` [US11814367, Compound 361], the IC50 in experiment [1] was 10 nM; in experiment [2], greater than 100000 nM. As to `COc1nc(CC(=O)N2C[C@H](F)C[C@H]2C(=O)N[C@@H](c2ccccc2)c2ccc(C(C)C)c(F)n2)nn1C` [US11814367, Compound 800], the IC50 in experiment [1] turned out to be 9 nM. For `NC(=O)NCC(=O)N1C[C@H](F)C[C@H]1C(=O)N[C@@H](c1ccccc1)c1ccc(C2CC2)c(F)n1` [US11814367, Compound 302], the IC50 in experiment [1] is 67 nM; in experiment [2] it was greater than 100000 nM.

In the case of `CC(=O)N1C[C@H](F)C[C@H]1C(=O)NC(c1ccc(C(C)C)cc1)c1ccccc1N` (single isomer, unassigned) [US11814367, Compound 642], the values for the IC50 in experiment [1] and in experiment [2] were 1330 nM and greater than 100000 nM, respectively. As to `CC(C)c1ccc([C@@H](NC(=O)[C@@H]2C[C@@H](F)CN2C(=O)Cn2cc(N3CCC3)nn2)c2ccccc2)nc1F` [US11814367, Compound 787], the IC50 in experiment [1] is 7 nM; in experiment [2], greater than 100000 nM. Molecule `COc1cccc(C(NC(=O)[C@@H]2C[C@@H](F)CN2C(C)=O)c2ccc(C(C)C)c(F)n2)c1` (single isomer, unassigned) [US11814367, Compound 654] came in with an IC50 in experiment [1] of 252 nM. For the molecule `O=C(N[C@H](c1ccccc1)c1ccc(C2CC2)c(F)n1)[C@@H]1C[C@@H](F)CN1C(=O)Cn1cnc2ccccc21` [US11814367, Compound 716], the IC50 in experiment [1] is 2160 nM.

In the case of `CC(C)c1ccc([C@@H](NC(=O)[C@@H]2C[C@@H](F)CN2C(=O)CC2COC2)c2ccccc2)cc1` [US11814367, Compound 218], the IC50 was 293 nM in experiment [1] and greater than 100000 nM in experiment [2].

Turning to `CC(C)c1ccc([C@@H](NC(=O)[C@@H]2C[C@@H](F)CN2C(=O)COC(=O)N(C)C)c2ccccc2)nc1` [US11814367, Compound 251], the IC50 in experiment [1] is 53 nM; in experiment [2], greater than 100000 nM.

Regarding `CC(=O)N1C[C@H](F)C[C@H]1C(=O)NC(c1ccc2cn(C)nc2c1)c1ccc(C(C)C)c(F)n1` (single isomer, unassigned) [US11814367, Compound 636], in experiment [1], the IC50 is 71 nM. In other words, the double-digit nanomolar range. On the same count and under the same terms, for `CC(=O)N1C[C@H](F)C[C@H]1C(=O)NC(c1cccc(-c2cc(C)nn2C)c1)c1ccc(C(C)C)c(F)n1` (single isomer, unassigned) [US11814367, Compound 697] the value was 1780 nM; for `CC(C)c1ccc([C@@H](NC(=O)[C@@H]2C[C@@H](F)CN2C(=O)Cc2nc(C(F)(F)F)co2)c2ccccc2)nc1F` [US11814367, Compound 801], 24 nM; for `CC(=O)N1C[C@H](F)C[C@H]1C(=O)NC(c1ccc2cn[nH]c2c1)c1ccc(C2CC2)c(F)n1` (single isomer, unassigned) [US11814367, Compound 637], 453 nM. The molecule `O=C(N[C@@H](c1ccccc1)c1ccc(C2CC2)c(F)n1)[C@@H]1C[C@@H](F)CN1C(=O)CNC(=O)N1CCC1` [US11814367, Compound 305] returned an IC50 in experiment [1] of 24 nM. This IC50 is about 19-fold lower than that of the molecule before. `CC(=O)N1C[C@H](F)C[C@H]1C(=O)NC(c1ccc2cnn(C)c2c1)c1ccc(C(C)C)c(F)n1` (single isomer, unassigned) [US11814367, Compound 635] came in with an IC50 in experiment [1] of 82 nM. For `CC(=O)N1C[C@H](F)C[C@H]1C(=O)NC(c1ccccc1)c1ccc(C2CCC2)c(F)c1` (single isomer, unassigned) [US11814367, Compound 660], the values for the IC50 in experiment [1] and in experiment [2] were 309 nM and greater than 100000 nM, respectively. The matching figures for `CC(=O)N1Cc2nccnc2CC1C(=O)N1C[C@H](F)C[C@H]1C(=O)N[C@@H](c1ccccc1)c1ccc(C(C)C)cc1` (some centres not stated) [US11814367, Compound 167]: 116 nM and greater than 100000 nM. The molecule `CC(=O)N1C[C@H](F)C[C@H]1C(=O)NC(c1ccc2cn[nH]c2c1)c1ccc(C(C)C)c(F)n1` (single isomer, unassigned) [US11814367, Compound 634] gave an IC50 in experiment [1] of 43 nM. This lies in the double-digit nanomolar range.

On to `CC(C)c1ccc([C@@H](NC(=O)[C@@H]2C[C@@H](F)CN2C(=O)c2ccc3c(cnn3C)c2)c2ccccc2)cc1` [US11814367, Compound 702], for which 1260 nM corresponded to half-maximal inhibition in experiment [1] (IC50).
